Test results: PubChem BioAssay (NCI)
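Each compound was tested at five concentrations against cells in 96-well plates for 48 hours. TGI: total growth inhibition.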

How the values were obtained:
Experiment in all cases: NCI anticancer screen, dose series, 48 h
[1] = system: 786-0 renal
[2] = system: A498 renal
[3] = system: A549 NSCLC
[4] = system: ACHN renal
[5] = system: BT-549 breast
[6] = system: CAKI-1 renal
[7] = system: CCRF-CEM leukemia
[8] = system: DU-145 prostate
[9] = system: EKVX NSCLC
[10] = system: HCC-2998 colon
[11] = system: HCT-116 colon
[12] = system: HCT-15 colon
[13] = system: HL-60(TB) leukemia
[14] = system: HOP-62 NSCLC
[15] = system: HOP-92 NSCLC
[16] = system: HS 578T breast
[17] = system: HT29 colon
[18] = system: IGROV1 ovarian
[19] = system: K-562 leukemia
[20] = system: KM12 colon
[21] = system: LOX IMVI melanoma
[22] = system: M14 melanoma
[23] = system: MALME-3M melanoma
[24] = system: MCF7 breast
[25] = system: MDA-MB-231 breast
[26] = system: MDA-MB-435
[27] = system: MDA-N
[28] = system: MOLT-4 leukemia
[29] = system: NCI-H226 lung
[30] = system: NCI-H23 lung
[31] = system: NCI-H460 lung
[32] = system: NCI-H522 lung
[33] = system: NCI/ADR-RES ovarian
[34] = system: OVCAR-3 ovarian
[35] = system: OVCAR-4 ovarian
[36] = system: OVCAR-5 ovarian
[37] = system: OVCAR-8 ovarian
[38] = system: PC-3 prostate
[39] = system: RPMI-8226 leukemia
[40] = system: RXF 393 renal
[41] = system: SF-268 CNS
[42] = system: SF-295 CNS
[43] = system: SF-539 CNS
[44] = system: SK-MEL-2 melanoma
[45] = system: SK-MEL-28 melanoma
[46] = system: SK-MEL-5 melanoma
[47] = system: SK-OV-3 ovarian
[48] = system: SN12C renal
[49] = system: SNB-19 CNS
[50] = system: SNB-75 CNS
[51] = system: SW-620 colon
[52] = system: T-47D breast
[53] = system: TK-10 renal
[54] = system: U251 CNS
[55] = system: UACC-257 melanoma
[56] = system: UACC-62 melanoma
[57] = system: UO-31 renal
[58] = system: COLO 205 colon

Nc1ncnc2c1ccn2CC=C(CO)CO
TGI [1]: > 100 µM | TGI [2]: > 100 µM | TGI [3]: > 100 µM | TGI [4]: > 100 µM | TGI [5]: > 100 µM | TGI [6]: > 100 µM | TGI [7]: > 100 µM | TGI [8]: > 100 µM | TGI [9]: > 100 µM | TGI [10]: > 100 µM | TGI [11]: > 100 µM | TGI [12]: > 100 µM | TGI [13]: > 100 µM | TGI [14]: > 100 µM | TGI [15]: > 100 µM | TGI [16]: > 100 µM | TGI [17]: > 100 µM | TGI [18]: > 100 µM | TGI [19]: > 100 µM | TGI [20]: > 100 µM | TGI [21]: > 100 µM | TGI [22]: > 100 µM | TGI [23]: > 100 µM | TGI [24]: > 100 µM | TGI [25]: > 100 µM | TGI [26]: > 100 µM | TGI [27]: > 100 µM | TGI [28]: > 100 µM | TGI [29]: > 100 µM | TGI [30]: > 100 µM | TGI [31]: > 100 µM | TGI [32]: > 100 µM | TGI [33]: > 100 µM | TGI [34]: > 100 µM | TGI [35]: > 100 µM | TGI [36]: > 100 µM | TGI [37]: > 100 µM | TGI [38]: > 100 µM | TGI [39]: > 100 µM | TGI [40]: > 100 µM | TGI [41]: > 100 µM | TGI [42]: > 100 µM | TGI [43]: > 100 µM | TGI [44]: > 100 µM | TGI [45]: > 100 µM | TGI [46]: > 100 µM | TGI [47]: > 100 µM | TGI [48]: > 100 µM | TGI [49]: > 100 µM | TGI [50]: > 100 µM | TGI [51]: > 100000 nM | TGI [52]: > 100 µM | TGI [53]: > 100 µM | TGI [54]: > 100 µM | TGI [55]: > 100 µM | TGI [56]: > 100 µM | TGI [57]: > 100 µM

Cc1cc2oc(=O)c(Cl)c(Cl)c2c(C)c1Cl
TGI [1]: 10.2 µM | TGI [2]: 34 µM | TGI [3]: 37.3 µM | TGI [4]: 23.3 µM | TGI [5]: 39 µM | TGI [6]: 15.7 µM | TGI [7]: 7.04 µM | TGI [58]: 8.09 µM | TGI [8]: 27.8 µM | TGI [9]: 34.5 µM | TGI [10]: 14.1 µM | TGI [11]: 14 µM | TGI [12]: 14.3 µM | TGI [13]: 4.93 µM | TGI [14]: 66 µM | TGI [15]: 7.45 µM | TGI [16]: 9.64 µM | TGI [17]: 22.8 µM | TGI [18]: 15.8 µM | TGI [19]: 4.39 µM | TGI [20]: 29.4 µM | TGI [21]: 8.84 µM | TGI [22]: 22.4 µM | TGI [23]: 23.7 µM | TGI [24]: 23.5 µM | TGI [25]: 28.7 µM | TGI [26]: 15.3 µM | TGI [27]: 10.8 µM | TGI [28]: 5.21 µM | TGI [29]: 33.2 µM | TGI [30]: 39.7 µM | TGI [31]: 59.9 µM | TGI [32]: 28.3 µM | TGI [33]: 38.4 µM | TGI [34]: 7.1 µM | TGI [35]: 15.6 µM | TGI [36]: 27.8 µM | TGI [37]: 10.4 µM | TGI [38]: 23.6 µM | TGI [39]: 6 µM | TGI [40]: 6.03 µM | TGI [41]: 11.5 µM | TGI [42]: 31.9 µM | TGI [43]: 21.4 µM | TGI [44]: 26 µM | TGI [45]: 28.9 µM | TGI [46]: 19.2 µM | TGI [47]: 27.6 µM | TGI [48]: 24.5 µM | TGI [49]: 24.6 µM | TGI [50]: 25.2 µM | TGI [51]: 2940 nM | TGI [52]: 40.2 µM | TGI [53]: 28.3 µM | TGI [54]: 8.45 µM | TGI [55]: 30 µM | TGI [56]: 20.2 µM | TGI [57]: 25.3 µM
